The assay has as its system sickle red blood cells (K-Cl cotransport). In words: Inhibition of dense cell formation triggered by 500 mM urea (K-Cl cotransport) in sickle red blood cells. The format is cell-based, human. To be noted: 37 centigrade, 3 hours; for inhibition of dense cell formation (FIG. 4): 0.6 mM, oxygenated and deoxygenated conditions; for inhibition of dense cell formation: hematocrit 2%. On the procedure:
The reaction medium consists of: 150 mM NaCl, 1 mM MgSO4, 10 mM HEPES buffer and 10 mM glucose. The osmolarity of the medium was adjusted to 290 mOsm/kg using a freezing point osmometer and the pH was adjusted to 7.4
For in vitro tests, blood was obtained from adult sickle cell patients (using acid-citrate-dextrose as an anticoagulant) whose hemoglobin F content is less than 1% and whose content of irreversibly sickled cells is less than 10%. The blood could be used for 2 days as long as the air-space of the container was equilibrated with 95% air/5% CO2 and the container was gently tumbled (1 to 2 rpm) at 4° C.
Four ml of the density gradient solution (density=1.104) was poured into each of 15 ml COREX centrifuge tubes (Corning Glass), and the tubes were spun at 10,000 rpm for 5 min, by which a density gradient was automatically formed. Then, 100 μl of blood was overlayered on top of each pre-formed density gradient, and the tubes were span for 10 minutes at 2,500 rpm using a low speed centrifuge with a swing rotor.
When red blood cells of normal subject with normal hemoglobin were spun, they all stayed near a top portion of the gradient (FIG. 2A). […] Then, the red blood cells in the top layer of each tubes, which consists of “non-dense cells”, were collected, washed with the reaction medium, resuspended in the same medium, and used for the experiments.
As described above, tubes each containing 4 ml of the density gradient solution with the density of 1.104 were spun at 12,000 rpm for 5 min to form gradient density. K-Cl cotransport experiments were conducted by incubating a suspension of “non-dense cells” with the hematocrit value of 2% at 37 centigrade for 3 hours. Then, 50 μl of each non-dense cell suspension was overlayered on top of the pre-formed density gradient, and the tubes were span for 10 minutes at 2,500 rpm using a low speed centrifuge with a swing rotor. If 500 mM urea was added before the incubation, dense cells were formed due to the stimulation of K-Cl cotransport as shown in FIG. 2D.
When the bottom layer was formed, red cells in both the top and bottom layers were separately collected, washed and hemolyzed in 5 mM phosphate buffer (pH 7.4) containing 0.5 mM EDTA and 0.5% of a detergent, BRIJ-30. From the hemoglobin content as determined by spectrophotometry, we determined the percentage of dense cell formation (Ohnishi, S. T. British J. Haematology 55:665-671, 1983).
FIG. 3. Dense cells can be formed by incubating non-dense cells at 37 centigrade for 3 hours in the presence of 500 mM urea, which triggers K-Cl cotransport and concomitant dehydration. […] The formation can be inhibited by the addition of inhibitors before starting the incubation. […] However, neither 2 mM vitamin C nor 2 mM vitamin E inhibited the dense cell formation.
FIG. 4. The inhibition of dense cell formation triggered with 500 mM urea at 37 centigrade for 3 hours by different green tea polyphenols. Open columns are for the oxygenated condition and filled columns for the deoxygenated condition. Abbreviations. CH: (+)-Catechin; EC: (−)-Epicatechin; ECg: (−)-Epicatechin gallate; EGC: (−)-Epigallocatechin; and EGCg: (−)-Epigallocatechin gallate.

Results on 8 compounds are retold here after patent publication US6538023B1, “Therapeutic uses of green tea polyphenols for sickle cell disease” (priority 2000, dated 2003).

Entries after “also recorded” stand apart in the source; their conditions may differ.

With (−)-Epigallocatechin gallate [EGCg], the “inhibition of dense cell formation (FIG. 4)” value (“inhibition … (FIG. 4)” for short) is listed as “significant effect; also recorded: maximum inhibitory effect”. Further, the “inhibition of dense cell formation” value (0.2-0.6 mM) is “effectively inhibited dense cell formation”.

As for `Oc1cc(O)c2c(c1)O[C@H](c1cc(O)c(O)c(O)c1)[C@H](O)C2` [EGC, (−)-Epigallocatechin], the “inhibition … (FIG. 4)” value is listed as “significant effect”.

Turning to Vitamin E [reference compound], the “inhibition of dense cell formation” value (2 mM) is “no inhibitory effect”.

For `Oc1cc(O)c2c(c1)O[C@H](c1ccc(O)c(O)c1)[C@@H](O)C2` [CH, (+)-Catechin], the “inhibition … (FIG. 4)” value is recorded as “no effects”.

On to `O=C(O[C@@H]1Cc2c(O)cc(O)cc2O[C@@H]1c1ccc(O)c(O)c1)c1cc(O)c(O)c(O)c1` [ECg, (−)-Epicatechin gallate], for which the “inhibition … (FIG. 4)” value was “significant effect”.

Turning to `O=C1O[C@H]([C@@H](O)CO)C(O)=C1O` [Vitamin C, reference compound], the “inhibition of dense cell formation” value (2 mM) is “no inhibitory effect”.

Regarding `C=C1[C@@H](O)[C@@H]2O[C@]3(CC[C@H](/C=C/[C@@H](C)[C@@H]4CC(C)=C[C@@]5(O[C@H](C[C@@](C)(O)C(=O)O)CC[C@H]5O)O4)O3)CC[C@H]2O[C@@H]1[C@@H](O)C[C@H](C)[C@H]1O[C@@]2(CCCCO2)CC[C@H]1C` [okadaic acid, reference compound], where the note is “100 nM”, the “inhibition of dense cell formation” value is given as “inhibited the dense cell formation completely”.

Take `COC[C@@H]([C@H](O)[C@H](O)C(=O)NCC[C@H](C)c1nc(/C=C/C[C@@H]2O[C@]3(C[C@@H](O)[C@@H]2C)O[C@H]([C@H](C[C@H](O)[C@H](C)[C@H](O)[C@H](C)/C=C(C)/C(C)=C/C=C/C(C)=C\C#N)OC)[C@H](OP(=O)(O)O)C3(C)C)co1)N(C)C` [calyculin A, reference compound]: under “25 nM”, the “inhibition of dense cell formation” value is on record as “inhibited the dense cell formation completely”.
